The values below come from US20240050562A1, “INHIBITOR OF CELL PROLIFERATION IN OBINUTUZUMAB RESISTANT CD20-POSITIVE CANCER, AND MEDICINAL COMPOSITION, MEDICINE, PRODUCTION, METHOD FOR INHIBITING CELL PROLIFERATION, THERAPEUTIC METHOD, TYPE II ANTI-CD20 ANTIBODY, COMPOUNDS, COMBINATION OF SAME, ENHANCER AND INDUCER, EACH RELATING THERETO” (Chugai Seiyaku Kabushiki Kaisha, priority 2019, published 2024).

Where a SMILES comes first, the peptide text is derived from it. The star is where a group is joined. Cbz = O=C(OCc1ccccc1)*; CH2F = FC*

The subject of series [1] is obinutuzumab-directed cell death-tolerant clone 3A4. Particulars: obinutuzumab 1 μg/mL + 4-hydroperoxycyclophosphamide 100 nM, doxorubicin 10 nM, vincristine 1 nM or prednisolone 1 μM, four days, <0 supra-additive, 0 additive, >0 sub-additive. As to the method: (§1) After four days of culturing at 37° C. in the presence of 5% CO2, the number of viable cells was measured using CellTiter-Glo 3D Cell Viability Assay (Promega). […] The effects of the combined use were assessed by numerical values obtained as follows: login (proportion of cell proliferation when both agents were added)—log10 (proportion of cell proliferation when obinutuzumab was added alone)—log10 (proportion of cell proliferation when the anti-cancer agent was added alone). Here, for the combined use, a numerical value of less than 0 means a supra-additive effect, 0 means an additive effect, and greater than 0 means a sub-additive effect (J Biopharm Stat. 2012; 22(3): 535-543).

For series [2], the system named is obinutuzumab-directed cell death-tolerant clone 1D2. The series is described as follows: combined-use cell proliferation test (CellTiter-Glo 3D), clone 1D2. In kind it is cell-based, human. The note with it: obinutuzumab 1 μg/mL + 4-hydroperoxycyclophosphamide 100 nM, doxorubicin 10 nM, vincristine 1 nM or prednisolone 1 μM, four days, <0 supra-additive, 0 additive, >0 sub-additive. The procedure:
as §1

Series [3] concerns obinutuzumab-directed cell death-tolerant clones 1A2, 1D2, 3A4 (derived from SU-DHL-4). The procedure:
The human germinal center B-cell-like diffuse large B-cell lymphoma cell line SU-DHL-4 was treated with 100 μg/mL of N-ethyl-N-nitrosourea for 24 hours to randomly introduce gene mutations. Thereafter, obinutuzumab was added to 200 μg/mL, and culturing was carried out at 37° C. in the presence of 5% CO2 for three weeks.
as §1

In series [4] the test system is obinutuzumab-directed cell death-tolerant clone 1A2. Particulars: four days; for effect of combined use with obinutuzumab (Bliss independence): log10(both agents) - log10(obinutuzumab alone) - log10(anti-cancer agent alone): obinutuzumab 1 μg/mL + 4-hydroperoxycyclophosphamide 100 nM, doxorubicin 10 nM, vincristine 1 nM or prednisolone 1 μM, <0 supra-additive, 0 additive, >0 sub-additive. The procedure: as §1
The obinutuzumab-directed cell death-tolerant clone 1A2 was seeded at 1×10^4 cells per well in 96-well plates, and obinutuzumab (0.00015-10 μg/mL) and prednisolone (0.2, 1 μM) were added. After four days of culturing at 37° C. in the presence of 5% CO2, the number of viable cells was measured using CellTiter-Glo 3D Cell Viability Assay (Promega).
(§2) After four days of culturing at 37° C. in the presence of 5% CO2, the number of viable cells was measured using CellTiter-Glo 3D Cell Viability Assay (Promega).
as §2

Series [5] has the same test system. The series is classed as cell-based. Particulars: Z-VAD-FMK 40 μM added to obinutuzumab 1 μg/mL + doxorubicin 10 nM, 72 hours, FIG. 7. As to the method:
[…] After 72 hours of culturing at 37° C. in the presence of 5% CO2, cells were stained with APO-BrdU TUNEL Assay Kit (Thermo Fisher).
After 72 hours of culturing at 37° C. in the presence of 5% CO2, cells were stained with APO-BrdU TUNEL Assay Kit (Thermo Fisher).

In series [6] the test system is CD20 on RL parent and ADCC-tolerant cell lines. In words: CD20 expression by FACS. The note with it: prednisolone 10 μM, 72 hours; parent RL cell line and tolerant cell lines; FIG. 10. In kind it is cell-based, human. The procedure:
The parent RL cell line and the tolerant cell lines were seeded at 4×10^5 cells per plate, prednisolone (10 μM) was added, and the cells were cultured at 37° C. for 72 hours. The cells were collected and stained with a control IgG antibody or an anti-CD20 antibody (BD Biosciences), and analysis of CD20 expression was carried out using FACS Fortessa (Becton Dickinson).
(In general: Flow cytometry measures light scatter and fluorescence of single cells or particles in a stream.)

The test system of series [7] is RL parent cell line and ADCC-tolerant cell lines RL-E300-1, RL-E300-2, RL-E300-8, RL-E300-22. In words: ADCC sensitivity (calcein release, CD16(158V)/NK-92 effector cells). In kind it is cell-based, human. Particulars: ET ratio 1:1. The procedure: Obinutuzumab was added at a concentration of 0.0001-100 ng/mL. CD16(158V)/NK-92 cells were added as effector cells to achieve an ET ratio of 1:1 and the cells were incubated at 37° C. for four hours. In addition, for Maximum Lysis, 1% Triton X-100 was added. After the plates were centrifuged and the supernatants were collected, calcein fluorescence was measured using a plate reader. ADCC sensitivity was assessed with the expression (measurement−background)/(Maximum Lysis−background)×100 (%).
The parent RL cell line and the tolerant cell lines were pre-cultured, with prednisolone (10 μM) added, at 37° C. for 72 hours. […] Obinutuzumab was added at a concentration of 1 ng/mL. CD16(158V)/NK-92 cells were added thereto as effector cells to achieve an ET ratio of 1:1, and the cells were incubated at 37° C. for four hours. In addition, for Maximum Lysis, 1% Triton X-100 was added. After the plates were centrifuged and the supernatants were collected, calcein fluorescence was measured using a plate reader. ADCC sensitivity was assessed with the expression (measurement−background)/(Maximum Lysis−background)×100 (%).

The next series deals with SU-DHL-4. The series is described as follows: four-day cell proliferation test, parent cell line. The series is classed as cell-based, human. Particulars: SU-DHL-4, four-day cell proliferation test.

`O=P1(N(CCCl)CCCl)NC(OO)CCO1` (centres unmarked) [4-hydroperoxycyclophosphamide]: the results for the “effect of combined use with obinutuzumab (Bliss independence): log10(both agents) - log10(obinutuzumab alone) - log10(anti-cancer agent alone)” value (“effect … - log10(anti-cancer agent alone)” for short) in series [1], in series [2] and in series [4] were 0.00, 0.02 and −0.03, respectively. For the same molecule, the “effect of combined use with obinutuzumab, in words” value in series [3] (all tolerant clones, combined with obinutuzumab 1 μg/mL, four days) is “approximately additive effects”.

Regarding `COC(=O)C[C@H](NC(=O)[C@H](C)NC(=O)[C@@H](NC(=O)OCc1ccccc1)C(C)C)C(=O)CF` [Z-VAD-FMK] (Cbz-Val-Ala-Asp(OMe)-CH2F), in series [5], the “DNA fragmentation (TUNEL) induced by obinutuzumab and doxorubicin, with pan caspase inhibitor” value is “suppressed”. In addition, the “cell proliferation ratio with pan caspase inhibitor” value in series [4] (Z-VAD-FMK 40 μM added to obinutuzumab 0.1, 1 μg/mL + doxorubicin 10 nM, FIG. 8) is reported as “suppressed the doxorubicin-enhanced inhibitory activity of obinutuzumab on cell proliferation”.

In the case of `C[C@]12C=CC(=O)C=C1CC[C@@H]1[C@@H]2[C@@H](O)C[C@@]2(C)[C@H]1CC[C@]2(O)C(=O)CO` [prednisolone], the CD20 expression result in series [6] is listed as “enhances CD20 expression”. Besides, in series [2], the “effect … - log10(anti-cancer agent alone)” value is reported as −0.10. Moreover, the “ADCC sensitivity after prednisolone pre-treatment” value in series [7] (prednisolone 10 μM 72 hours pre-culture, then obinutuzumab 1 ng/mL, parent and tolerant cell lines, FIG. 11) was “enhances ADCC sensitivity”.

Consider `CC[C@]1(O)C[C@H]2CN(CCc3c([nH]c4ccccc34)[C@@](C(=O)OC)(c3cc4c(cc3OC)N(C=O)[C@H]3[C@@](O)(C(=O)OC)[C@H](OC(C)=O)[C@]5(CC)C=CCN6CC[C@]43[C@@H]65)C2)C1` [vincristine], for which the figures for the “effect … - log10(anti-cancer agent alone)” value in series [2] and in series [4] were −0.10 and −0.35, respectively.

Regarding “obinutuzumab: glycoengineered, genetically recombinant humanized anti-CD20 monoclonal antibody, type II anti-CD20 antibody”, the “obinutuzumab concentration for 50% cell proliferation inhibition” value in series [3] was “at least 200 μg/mL”; in the series with SU-DHL-4, 0.037 µg/mL. The “ADCC sensitivity of ADCC-tolerant cell lines compared with the parent cell line” value in series [7] (obinutuzumab 0.0001-100 ng/mL, four hours, FIG. 9) is listed as “significant reduction in ADCC sensitivity”.
